# Tests used:
# [1] = target: SRSF protein kinase 1 (Homo sapiens) (UniProt Q96SB4); assay: SRPK1 Kinase activity screen
# [2] = target: Cyclin-dependent kinase 5/CDK5 activator 1 (Homo sapiens) (UniProt Q00535+Q15078); assay: CDK5/p35 Kinase activity screen; type: protein-complex assay
# [3] = target: Ephrin type-A receptor 5 (Homo sapiens) (UniProt P54756); assay: EPHA5 Kinase activity screen
# [4] = target: Ephrin type-B receptor 1 (Homo sapiens) (UniProt P54762); assay: EPHB1 Kinase activity screen
# [5] = target: Dual specificity mitogen-activated protein kinase kinase 2 (Homo sapiens) (UniProt P36507); assay: MAP2K2 (MEK2) Kinase activity screen
# [6] = target: Mitogen-activated protein kinase 8 (Homo sapiens) (UniProt P45983); assay: MAPK8 (JNK1) Kinase activity screen
# [7] = target: Hepatocyte growth factor receptor (Homo sapiens) (UniProt P08581); assay: MET (cMet) Kinase activity screen; conditions: Compound concentration 1.0 uM
# [8] = target: Focal adhesion kinase 1 (Homo sapiens) (UniProt Q05397); assay: PTK2 (FAK) Kinase activity screen
# [9] = target: 5-hydroxytryptamine receptor 1D (Homo sapiens, UniProt P28221); assay: GPCRScan assay: inhibition of 5-HT1D; parameters: radioligand conc. used [nm] 1.0 – 2.0, parental cells HEKT
# [10] = target: 5-hydroxytryptamine receptor 1E (Homo sapiens, UniProt P28566); assay: GPCRScan assay: inhibition of 5-HT1E; parameters: radioligand conc. used [nm] 2.1 – 5.0, parental cells stable HEK
# [11] = target: 5-hydroxytryptamine receptor 2A (Homo sapiens, UniProt P28223); assay: GPCRScan assay: inhibition of 5-HT2A; parameters: radioligand conc. used [nm] 1.2 – 2.4, parental cells HEKT
# [12] = target: Kappa-type opioid receptor (Homo sapiens, UniProt P41145); assay: GPCRScan assay: inhibition of KOR; parameters: radioligand conc. used [nm] 0.6 – 1.2, parental cells stable HEK
# Histamine H2 receptor = Histamine H2 receptor (Homo sapiens, UniProt P25021); assay: GPCRScan assay: inhibition of H2; parameters: radioligand conc. used [nm] 0.02 – 0.05, parental cells Stable HEK
# [13] = target: Alpha-1A adrenergic receptor (Homo sapiens, UniProt P35348); assay: GPCRScan assay: inhibition of Alpha1A; parameters: radioligand conc. used [nm] 0.2 - 1.0, parental cells stable HEK
# [14] = target: Alpha-1B adrenergic receptor (Homo sapiens, UniProt P35368); assay: GPCRScan assay: inhibition of Alpha1B; parameters: radioligand conc. used [nm] 0.3 – 1.0, parental cells stable HEK
# [15] = target: Alpha-1D adrenergic receptor (Homo sapiens, UniProt P25100); assay: GPCRScan assay: inhibition of Alpha1D; parameters: radioligand conc. used [nm] 0.3 – 1.0, parental cells stable
# [16] = target: 5-hydroxytryptamine receptor 6 (Homo sapiens) (UniProt P50406); conditions: Compound concentration 10.0 uM
# Focal adhesion kinase 1 (Homo sapiens), sequence (Q05397 2-1052 limits assumed): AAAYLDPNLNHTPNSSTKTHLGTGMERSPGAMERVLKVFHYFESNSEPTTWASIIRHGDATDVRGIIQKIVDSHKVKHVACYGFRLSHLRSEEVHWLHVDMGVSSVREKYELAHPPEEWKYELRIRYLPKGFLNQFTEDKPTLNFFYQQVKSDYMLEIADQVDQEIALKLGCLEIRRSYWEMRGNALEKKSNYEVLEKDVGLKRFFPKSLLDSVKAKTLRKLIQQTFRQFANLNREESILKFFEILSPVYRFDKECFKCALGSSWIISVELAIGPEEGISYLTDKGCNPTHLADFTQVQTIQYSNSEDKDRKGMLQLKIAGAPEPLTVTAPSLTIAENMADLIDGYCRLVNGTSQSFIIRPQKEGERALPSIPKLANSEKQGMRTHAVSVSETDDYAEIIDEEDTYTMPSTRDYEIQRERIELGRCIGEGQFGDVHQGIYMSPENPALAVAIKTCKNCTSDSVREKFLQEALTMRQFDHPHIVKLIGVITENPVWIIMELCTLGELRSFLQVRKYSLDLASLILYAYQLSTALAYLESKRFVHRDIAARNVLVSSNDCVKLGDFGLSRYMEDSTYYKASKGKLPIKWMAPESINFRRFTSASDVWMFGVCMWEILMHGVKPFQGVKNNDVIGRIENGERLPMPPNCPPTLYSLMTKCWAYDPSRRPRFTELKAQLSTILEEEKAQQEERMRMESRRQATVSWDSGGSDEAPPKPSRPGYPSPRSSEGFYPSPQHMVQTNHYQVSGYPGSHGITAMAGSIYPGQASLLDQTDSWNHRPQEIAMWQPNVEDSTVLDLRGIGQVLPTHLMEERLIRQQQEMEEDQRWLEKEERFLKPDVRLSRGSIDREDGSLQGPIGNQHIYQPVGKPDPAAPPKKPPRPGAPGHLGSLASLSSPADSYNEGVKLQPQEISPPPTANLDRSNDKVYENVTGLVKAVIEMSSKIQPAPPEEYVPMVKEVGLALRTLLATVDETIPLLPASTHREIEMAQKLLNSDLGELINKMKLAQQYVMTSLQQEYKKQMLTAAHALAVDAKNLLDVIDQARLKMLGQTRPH
# Cyclin-dependent kinase 5/CDK5 activator 1 (Homo sapiens), sequence (Q00535 whole entry): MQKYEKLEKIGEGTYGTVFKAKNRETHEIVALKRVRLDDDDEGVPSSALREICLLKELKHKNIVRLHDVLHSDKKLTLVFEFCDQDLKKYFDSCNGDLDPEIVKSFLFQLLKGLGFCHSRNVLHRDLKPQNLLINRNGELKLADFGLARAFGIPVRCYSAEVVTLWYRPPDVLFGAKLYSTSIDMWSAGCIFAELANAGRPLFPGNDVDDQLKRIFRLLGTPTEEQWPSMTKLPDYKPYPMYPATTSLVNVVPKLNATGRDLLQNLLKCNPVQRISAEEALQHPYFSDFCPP
# Cyclin-dependent kinase 5/CDK5 activator 1 (Homo sapiens), sequence (Q15078 99-307 partner limits assumed): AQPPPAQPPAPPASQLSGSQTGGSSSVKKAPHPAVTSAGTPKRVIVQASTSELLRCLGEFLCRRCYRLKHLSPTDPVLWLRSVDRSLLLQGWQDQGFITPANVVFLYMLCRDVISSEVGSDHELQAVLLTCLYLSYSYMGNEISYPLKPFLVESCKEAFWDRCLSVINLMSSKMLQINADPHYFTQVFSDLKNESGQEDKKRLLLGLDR
# 5-hydroxytryptamine receptor 2A, sequence (P28223 whole entry): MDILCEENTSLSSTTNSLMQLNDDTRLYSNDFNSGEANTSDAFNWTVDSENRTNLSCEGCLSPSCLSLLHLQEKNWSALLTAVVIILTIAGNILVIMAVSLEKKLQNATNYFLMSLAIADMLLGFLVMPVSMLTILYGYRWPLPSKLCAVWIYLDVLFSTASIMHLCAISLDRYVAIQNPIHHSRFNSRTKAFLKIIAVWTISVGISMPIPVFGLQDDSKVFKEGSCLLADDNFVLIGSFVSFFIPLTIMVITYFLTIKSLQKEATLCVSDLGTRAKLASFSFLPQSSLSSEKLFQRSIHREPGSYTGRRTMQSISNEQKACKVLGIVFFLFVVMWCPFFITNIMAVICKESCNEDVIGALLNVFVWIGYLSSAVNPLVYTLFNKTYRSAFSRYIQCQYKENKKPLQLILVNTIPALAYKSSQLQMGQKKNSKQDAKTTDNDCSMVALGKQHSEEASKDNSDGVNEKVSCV
# Ephrin type-B receptor 1 (Homo sapiens), sequence (P54762 whole entry): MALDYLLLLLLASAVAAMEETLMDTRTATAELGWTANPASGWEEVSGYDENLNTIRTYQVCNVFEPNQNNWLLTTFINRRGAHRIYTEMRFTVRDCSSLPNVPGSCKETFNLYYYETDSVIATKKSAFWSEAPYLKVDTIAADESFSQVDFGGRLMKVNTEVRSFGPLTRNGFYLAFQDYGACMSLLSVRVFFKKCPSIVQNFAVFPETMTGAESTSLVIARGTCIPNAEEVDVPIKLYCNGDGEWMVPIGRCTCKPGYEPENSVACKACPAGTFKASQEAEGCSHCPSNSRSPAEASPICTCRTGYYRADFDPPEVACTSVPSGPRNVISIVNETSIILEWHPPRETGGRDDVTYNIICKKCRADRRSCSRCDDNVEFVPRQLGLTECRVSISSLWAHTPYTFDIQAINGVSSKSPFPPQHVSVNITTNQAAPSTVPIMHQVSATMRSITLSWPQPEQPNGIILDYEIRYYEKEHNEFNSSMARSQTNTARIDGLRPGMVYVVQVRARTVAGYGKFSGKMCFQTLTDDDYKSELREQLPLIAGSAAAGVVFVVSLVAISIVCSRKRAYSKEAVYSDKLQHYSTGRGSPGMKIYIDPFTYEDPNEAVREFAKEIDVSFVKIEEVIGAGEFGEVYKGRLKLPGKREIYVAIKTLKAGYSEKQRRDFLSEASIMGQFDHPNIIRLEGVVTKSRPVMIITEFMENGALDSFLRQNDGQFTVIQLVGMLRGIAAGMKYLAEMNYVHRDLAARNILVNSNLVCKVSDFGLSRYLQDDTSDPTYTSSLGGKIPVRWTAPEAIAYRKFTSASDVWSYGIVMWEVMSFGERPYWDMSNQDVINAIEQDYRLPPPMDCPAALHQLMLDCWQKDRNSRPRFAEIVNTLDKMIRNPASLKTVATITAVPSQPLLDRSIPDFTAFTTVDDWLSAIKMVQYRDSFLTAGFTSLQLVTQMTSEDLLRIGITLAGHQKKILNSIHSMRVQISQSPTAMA
# Kappa-type opioid receptor, sequence (P41145 whole entry): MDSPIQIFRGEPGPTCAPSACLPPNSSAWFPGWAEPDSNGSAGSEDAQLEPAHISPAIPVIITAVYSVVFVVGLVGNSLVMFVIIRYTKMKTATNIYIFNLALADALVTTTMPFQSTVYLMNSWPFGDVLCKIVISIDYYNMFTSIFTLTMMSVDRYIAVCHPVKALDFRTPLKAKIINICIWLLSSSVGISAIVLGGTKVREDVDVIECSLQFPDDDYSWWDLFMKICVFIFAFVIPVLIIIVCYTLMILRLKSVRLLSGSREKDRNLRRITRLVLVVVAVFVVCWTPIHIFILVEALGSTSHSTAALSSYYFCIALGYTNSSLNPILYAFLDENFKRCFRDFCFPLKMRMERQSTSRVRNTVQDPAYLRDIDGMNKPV
# Mitogen-activated protein kinase 8 (Homo sapiens), sequence (P45983 whole entry): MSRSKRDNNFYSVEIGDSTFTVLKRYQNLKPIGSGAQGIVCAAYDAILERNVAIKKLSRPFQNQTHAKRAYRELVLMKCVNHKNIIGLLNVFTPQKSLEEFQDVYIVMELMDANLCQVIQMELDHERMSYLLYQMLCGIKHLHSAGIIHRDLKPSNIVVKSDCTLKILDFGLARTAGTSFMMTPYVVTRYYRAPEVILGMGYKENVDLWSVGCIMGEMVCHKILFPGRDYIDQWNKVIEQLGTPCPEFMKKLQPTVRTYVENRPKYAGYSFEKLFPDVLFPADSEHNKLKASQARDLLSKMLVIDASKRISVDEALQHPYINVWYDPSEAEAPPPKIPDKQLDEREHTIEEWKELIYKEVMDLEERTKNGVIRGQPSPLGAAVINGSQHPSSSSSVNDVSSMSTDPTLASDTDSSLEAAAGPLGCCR
# 5-hydroxytryptamine receptor 1D, sequence (P28221 whole entry): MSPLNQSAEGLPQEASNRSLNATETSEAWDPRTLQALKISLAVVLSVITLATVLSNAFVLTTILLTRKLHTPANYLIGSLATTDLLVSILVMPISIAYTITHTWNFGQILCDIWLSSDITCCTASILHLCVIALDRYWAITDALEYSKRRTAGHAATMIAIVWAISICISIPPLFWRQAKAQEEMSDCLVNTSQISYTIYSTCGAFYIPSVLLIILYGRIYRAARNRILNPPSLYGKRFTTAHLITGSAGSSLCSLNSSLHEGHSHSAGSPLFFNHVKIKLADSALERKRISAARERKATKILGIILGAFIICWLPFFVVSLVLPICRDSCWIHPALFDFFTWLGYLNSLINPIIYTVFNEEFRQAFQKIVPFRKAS
# 5-hydroxytryptamine receptor 1E, sequence (P28566 whole entry): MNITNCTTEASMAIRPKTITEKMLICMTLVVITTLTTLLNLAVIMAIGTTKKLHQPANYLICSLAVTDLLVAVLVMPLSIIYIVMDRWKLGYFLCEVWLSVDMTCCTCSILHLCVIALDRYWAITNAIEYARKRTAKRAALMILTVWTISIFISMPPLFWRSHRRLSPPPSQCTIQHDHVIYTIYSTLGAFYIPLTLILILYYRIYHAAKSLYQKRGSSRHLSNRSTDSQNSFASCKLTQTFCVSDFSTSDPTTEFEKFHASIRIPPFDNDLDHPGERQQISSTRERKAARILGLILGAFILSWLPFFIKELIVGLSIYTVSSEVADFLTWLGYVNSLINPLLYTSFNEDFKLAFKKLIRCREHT
# Histamine H2 receptor, sequence (P25021 whole entry): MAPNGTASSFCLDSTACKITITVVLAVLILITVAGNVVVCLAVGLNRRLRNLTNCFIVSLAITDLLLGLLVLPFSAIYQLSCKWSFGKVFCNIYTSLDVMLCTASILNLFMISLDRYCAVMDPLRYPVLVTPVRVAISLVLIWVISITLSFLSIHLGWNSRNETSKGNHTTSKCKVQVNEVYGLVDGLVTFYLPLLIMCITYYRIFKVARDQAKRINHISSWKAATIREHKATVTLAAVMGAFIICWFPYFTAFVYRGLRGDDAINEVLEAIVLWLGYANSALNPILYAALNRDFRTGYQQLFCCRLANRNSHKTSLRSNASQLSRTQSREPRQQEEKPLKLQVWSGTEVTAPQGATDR
structure (smiles),measurement,setting,value
CN1CCN(C(=O)C(C)(C)c2ccc(C(=O)Nc3cn4cc(-c5ccncc5)ccc4n3)cc2)CC1 [T3-CLK],inhibition,[1]; Compound concentration 0.123 uM,-3.09%
same,inhibition,[1]; Compound concentration 1.11 uM,-2.58%
same,inhibition,[2]; Compound concentration 0.1 uM,1.85%
same,inhibition,[2]; Compound concentration 1.0 uM,-1.12%
same,inhibition,[3]; Compound concentration 0.1 uM,-5.79%
same,inhibition,[3]; Compound concentration 1.0 uM,-4.96%
same,inhibition,[4]; Compound concentration 0.1 uM,4.83%
same,inhibition,[4]; Compound concentration 1.0 uM,4.09%
same,inhibition,[5]; Compound concentration 0.1 uM,16.9%
same,inhibition,[5]; Compound concentration 1.0 uM,13.8%
same,inhibition,[6]; Compound concentration 0.1 uM,5.45%
same,inhibition,[6]; Compound concentration 1.0 uM,2.56%
same,inhibition,[7],-7.39%
same,inhibition,[8]; Compound concentration 0.1 uM,-9.12%
same,inhibition,[8]; Compound concentration 1.0 uM,-7.35%
CN1CCN(C(=O)C(C)(C)c2ccc(C(=O)Nc3cn4cc(-c5cc(C(C)(C)C)cc(C(C)(C)C)c5)ccc4n3)cc2)CC1 [T3-CLK-N],Ki,[9]; read-out: Ki,3070 nM
same,Ki,[9]; read-out: pKi (converted),2820 nM
same,Ki,[10]; read-out: Ki,3560 nM
same,Ki,[10]; read-out: pKi (converted),3470 nM
same,Ki,[11]; read-out: Ki,1530 nM
same,Ki,[11]; read-out: pKi (converted),1320 nM
same,Ki,[12]; read-out: Ki,990 nM
same,Ki,[12]; read-out: pKi (converted),977 nM
same,Ki,Histamine H2 receptor; read-out: Ki,1730 nM
same,Ki,Histamine H2 receptor; read-out: pKi (converted),1620 nM
same,Ki,[13]; read-out: Ki,1390 nM
same,Ki,[13]; read-out: pKi (converted),1350 nM
same,Ki,[14]; read-out: Ki,5530 nM
same,Ki,[14]; read-out: pKi (converted),5370 nM
same,Ki,[15],1450 nM
same,inhibition,[16],30.8%

# — ChEMBL document CHEMBL4507307 (2021)
